Laboratory results published in article PMC10752118 (Therapeutic Advances in Medical Oncology, 2023).
Each block holds one compound with its values, some of them ahead of it.

Assays:
[1] = test system: P-glycoprotein (P-gp) multidrug transporter; settings: cited from earlier work
[2] = Plasma PK, noncompartmental analysis; assay type: in vivo, human; settings: for observed clearance (CL), dose dependence: 1 h IV infusion
[3] = test system: treatment refractory HER2 over-expressing breast cancer; settings: in combination with weekly trastuzumab and paclitaxel, nine patients; cited from earlier work
[4] = test system: uridine diphosphate-glucoronosyltransferases; settings: cited from earlier work
[5] = cited from earlier work
[6] = test system: patients with advanced TNBC; experiment: Phase Ib 3 + 3 dose escalation: DLT assessment, MTD and RP2D; assay type: in vivo, human
[7] = prior single-agent study; cited from earlier work
HSP90 = settings: read-out: dissociation constant (Kd); cited from earlier work
[8] = Day 1 (no onalespib), 80 mg/m^2 paclitaxel IV, DL1, geometric mean ± SD
[9] = Day 1 (no onalespib), 80 mg/m^2 paclitaxel IV, DL2, geometric mean ± SD
[10] = Day 1 (no onalespib), 80 mg/m^2 paclitaxel IV, DL3, geometric mean ± SD
[11] = Day 1 (no onalespib), 80 mg/m^2 paclitaxel IV, DL4, geometric mean ± SD
[12] = Day 7 (no paclitaxel), DL1, onalespib 120 mg/m^2 IV, geometric mean ± SD
[13] = Day 7 (no paclitaxel), DL2, onalespib 150 mg/m^2 IV, geometric mean ± SD
[14] = Day 7 (no paclitaxel), DL3, onalespib 200 mg/m^2 IV, geometric mean ± SD
[15] = Day 7 (no paclitaxel), DL4, onalespib 260 mg/m^2 IV, geometric mean ± SD
[16] = Day 8 (with 80 mg/m^2 paclitaxel), DL1, onalespib 120 mg/m^2 IV, geometric mean ± SD
[17] = Day 8 (with 80 mg/m^2 paclitaxel), DL2, onalespib 150 mg/m^2 IV, geometric mean ± SD
[18] = Day 8 (with 80 mg/m^2 paclitaxel), DL3, onalespib 200 mg/m^2 IV, geometric mean ± SD
[19] = Day 8 (with 80 mg/m^2 paclitaxel), DL4, onalespib 260 mg/m^2 IV, geometric mean ± SD

observed clearance (CL), dose dependence [2]: independent of dose
CL [2, 8]: 12.6 ± 2.63 L/h/m^2
Vz [2, 8]: 279 ± 41.9 L/m^2
AUCinf [2, 9]: 5.59 ± 0.185 µM·h
CL [2, 9]: 16.8 ± 0.535 L/h/m^2
Cmax [2, 9]: 4.17 ± 0.299 µM
Vz [2, 9]: 216 ± 19.3 L/m^2
CL [2, 10]: 15.3 ± 4.77 L/h/m^2
Cmax [2, 10]: 4.45 ± 2.28 µM
Vz [2, 10]: 206 ± 89.8 L/m^2
CL [2, 11]: 11.9 ± 2.78 L/h/m^2
Cmax [2, 11]: 4.68 ± 1.82 µM
Vz [2, 11]: 181 ± 46.0 L/m^2
t1/2 ([2]; Day 8, 80 mg/m^2 paclitaxel IV with onalespib 120 mg/m^2, DL1, median (range)): 15.0 (13.1–15.4) h
AUC(0-inf) ([2]; human, plasma, intravenous, 80 mg/m^2, Mean AUCinf, range across DLs, single agent, cycle 1, day 1, 80 mg/m^2): 5.59 to 7.75 µM·h
Cmax ([2]; human, plasma, intravenous, 80 mg/m^2, Mean Cmax, range across DLs, single agent, cycle 1, day 1, 80 mg/m^2): 3.87 to 4.68 µM
AUC(0-inf) ([2]; human, plasma, intravenous, mean AUCinf, range across all four DLs, cycle 1, day 8, 80 mg/m^2 in combination with onalespib): 6.5 to 8.72 µM·h
Cmax ([2]; human, plasma, intravenous, mean Cmax, range across all four DLs, cycle 1, day 8, 80 mg/m^2 in combination with onalespib): 2.99 to 4.23 µM
AUC(0-inf) ([2]; human, plasma, iv, 80 mg/m2, AUCinf, Day 1 (no onalespib), 80 mg/m^2 paclitaxel IV, DL1, geometric mean ± SD): 7.44 ± 1.54 µM·h
AUC(0-inf) ([2]; human, plasma, iv, 80 mg/m2, AUCinf, Day 1 (no onalespib), 80 mg/m^2 paclitaxel IV, DL3, geometric mean ± SD): 6.1 ± 2.24 µM·h
AUC(0-inf) ([2]; human, plasma, iv, 80 mg/m2, AUCinf, Day 1 (no onalespib), 80 mg/m^2 paclitaxel IV, DL4, geometric mean ± SD): 7.75 ± 1.75 µM·h
half-life ([2]; human, plasma, iv, 80 mg/m2, t1/2, Day 1 (no onalespib), 80 mg/m^2 paclitaxel IV, DL2, median (range)): 9.18 h
half-life ([2]; human, plasma, iv, 80 mg/m2, t1/2, Day 1 (no onalespib), 80 mg/m^2 paclitaxel IV, DL3, median (range)): 9.06 h
half-life ([2]; human, plasma, iv, 80 mg/m2, t1/2, Day 1 (no onalespib), 80 mg/m^2 paclitaxel IV, DL4, median (range)): 10.6 h
AUC(0-inf) ([2]; human, plasma, iv, AUCinf, Day 8, 80 mg/m^2 paclitaxel IV with onalespib 120 mg/m^2, DL1, geometric mean ± SD): 7.97 ± 2.95 µM·h
AUC(0-inf) ([2]; human, plasma, iv, AUCinf, Day 8, 80 mg/m^2 paclitaxel IV with onalespib 200 mg/m^2, DL3, geometric mean ± SD): 6.47 ± 2.18 µM·h
AUC(0-inf) ([2]; human, plasma, iv, AUCinf, Day 8, 80 mg/m^2 paclitaxel IV with onalespib 260 mg/m^2, DL4, geometric mean ± SD): 8.72 ± 2.54 µM·h
Cmax ([2]; human, plasma, iv, Cmax, Day 8, 80 mg/m^2 paclitaxel IV with onalespib 120 mg/m^2, DL1, geometric mean ± SD): 2.99 ± 3.59 µM
Cmax ([2]; human, plasma, iv, Cmax, Day 8, 80 mg/m^2 paclitaxel IV with onalespib 200 mg/m^2, DL3, geometric mean ± SD): 4.23 ± 2.18 µM
half-life ([2]; human, plasma, iv, t1/2, Day 8, 80 mg/m^2 paclitaxel IV with onalespib 200 mg/m^2, DL3, median (range)): 8.67 h
half-life ([2]; human, plasma, iv, t1/2, Day 8, 80 mg/m^2 paclitaxel IV with onalespib 260 mg/m^2, DL4, median (range)): 10.7 h
Compound: CC(=O)O[C@H]1C(=O)[C@@]2(C)[C@H]([C@H](OC(=O)c3ccccc3)[C@]3(O)C[C@H](OC(=O)[C@H](O)[C@@H](NC(=O)c4ccccc4)c4ccccc4)C(C)=C1C3(C)C)[C@]1(OC(C)=O)CO[C@@H]1C[C@@H]2O [paclitaxel]
interaction with P-gp [1]: substrate for MDR1 P-gp

Compound: CC(C)c1cc(-c2n[nH]c(=O)n2-c2ccc3c(ccn3C)c2)c(O)cc1O [ganetespib]
partial response [3]: 22%
stable disease [3]: 56%

Compound: CC(C)c1cc(C(=O)N2Cc3ccc(CN4CCN(C)CC4)cc3C2)c(O)cc1O [onalespib, (2,4-dihydroxy-5-isopropylphenyl)-[5-(4-methylpiperazin-1-ylmethyl)-1,3-dihydroisoindol-2-yl]methanone]
glucuronidation substrate status [4]: substrate for glucuronidation
interaction with P-gp [1]: substrate and moderate inhibitor of P-gp
water solubility [5]: High water solubility
MTD of onalespib ([6]; combined with paclitaxel 80 mg/m^2, IV days 1, 8, 15 of 28-day cycle): 260 mg/m^2
RP2D of onalespib ([6]; given with paclitaxel 80 mg/m^2, IV days 1, 8, 15 of 28-day cycle): 260 mg/m^2
exposure (AUCinf and Cmax), dose proportionality ([2]; 120 to 260 mg/m^2): approximately dose-proportional
observed clearance (CL), dose dependence [2]: independent of dose
CL [2, 12]: 42.6 ± 4.99 L/h/m^2
Vz [2, 12]: 344 ± 134 L/m^2
CL [2, 13]: 51.1 ± 4.37 L/h/m^2
Vz [2, 13]: 443 ± 23.2 L/m^2
CL [2, 14]: 48.4 ± 29.2 L/h/m^2
Vz [2, 14]: 522 ± 273 L/m^2
CL [2, 15]: 41.6 ± 10.0 L/h/m^2
Vz [2, 15]: 427 ± 102 L/m^2
CL [2, 16]: 47.9 ± 2.03 L/h/m^2
Vz [2, 16]: 730 ± 121 L/m^2
CL [2, 17]: 64.3 ± 21.0 L/h/m^2
Vz [2, 17]: 801 ± 263 L/m^2
CL [2, 18]: 51.4 ± 14.8 L/h/m^2
Vz [2, 18]: 717 ± 282 L/m^2
CL [2, 19]: 45.2 ± 13.4 L/h/m^2
Vz [2, 19]: 598 ± 208 L/m^2
effect of combination with paclitaxel on overall exposure (AUCinf and Cmax) ([2]; cycle 1 day –7 versus day 8): no apparent changes in overall exposure
AUC(0-inf) ([2]; human, plasma, intravenous, AUCinf, range, single agent, cycle 1, day –7, all DLs (120 to 260 mg/m^2)): 4.3 to 22.7 µM·h
half-life ([2]; human, plasma, intravenous, mean t1/2, range across DLs, as a single agent only): 6.04 to 7.32 h
AUC(0-inf) ([2]; human, plasma, iv, 120 mg/m2, AUCinf, Day 7 (no paclitaxel), DL1, onalespib 120 mg/m^2 IV, geometric mean ± SD): 6.72 ± 0.688 µM·h
Cmax ([2]; human, plasma, iv, 120 mg/m2, Cmax, Day 7 (no paclitaxel), DL1, onalespib 120 mg/m^2 IV, geometric mean ± SD): 2.8 ± 0.844 µM
half-life ([2]; human, plasma, iv, 120 mg/m2, t1/2, Day 7 (no paclitaxel), DL1, onalespib 120 mg/m^2 IV, median (range)): 7.23 h
AUC(0-inf) ([2]; human, plasma, iv, 200 mg/m2, AUCinf, Day 7 (no paclitaxel), DL3, onalespib 200 mg/m^2 IV, geometric mean ± SD): 10 ± 4.35 µM·h
Cmax ([2]; human, plasma, iv, 200 mg/m2, Cmax, Day 7 (no paclitaxel), DL3, onalespib 200 mg/m^2 IV, geometric mean ± SD): 3.21 ± 2.56 µM
half-life ([2]; human, plasma, iv, 200 mg/m2, t1/2, Day 7 (no paclitaxel), DL3, onalespib 200 mg/m^2 IV, median (range)): 7.32 h
AUC(0-inf) ([2]; human, plasma, iv, 260 mg/m2, AUCinf, Day 7 (no paclitaxel), DL4, onalespib 260 mg/m^2 IV, geometric mean ± SD): 15.2 ± 3.84 µM·h
Cmax ([2]; human, plasma, iv, 260 mg/m2, Cmax, Day 7 (no paclitaxel), DL4, onalespib 260 mg/m^2 IV, geometric mean ± SD): 5.36 ± 2.8 µM
half-life ([2]; human, plasma, iv, 260 mg/m2, t1/2, Day 7 (no paclitaxel), DL4, onalespib 260 mg/m^2 IV, median (range)): 6.83 h
AUC(0-inf) ([2]; human, plasma, iv, AUCinf, Day 8 (with 80 mg/m^2 paclitaxel), DL1, onalespib 120 mg/m^2 IV, geometric mean ± SD): 6.1 ± 0.244 µM·h
AUC(0-inf) ([2]; human, plasma, iv, AUCinf, Day 8 (with 80 mg/m^2 paclitaxel), DL2, onalespib 150 mg/m^2 IV, geometric mean ± SD): 5.64 ± 2.32 µM·h
AUC(0-inf) ([2]; human, plasma, iv, AUCinf, Day 8 (with 80 mg/m^2 paclitaxel), DL3, onalespib 200 mg/m^2 IV, geometric mean ± SD): 9.46 ± 2.24 µM·h
AUC(0-inf) ([2]; human, plasma, iv, AUCinf, Day 8 (with 80 mg/m^2 paclitaxel), DL4, onalespib 260 mg/m^2 IV, geometric mean ± SD): 14 ± 4.66 µM·h
Cmax ([2]; human, plasma, iv, Cmax, Day 8 (with 80 mg/m^2 paclitaxel), DL1, onalespib 120 mg/m^2 IV, geometric mean ± SD): 2.74 ± 0.676 µM
Cmax ([2]; human, plasma, iv, Cmax, Day 8 (with 80 mg/m^2 paclitaxel), DL2, onalespib 150 mg/m^2 IV, geometric mean ± SD): 2.41 ± 1.03 µM
Cmax ([2]; human, plasma, iv, Cmax, Day 8 (with 80 mg/m^2 paclitaxel), DL3, onalespib 200 mg/m^2 IV, geometric mean ± SD): 4.64 ± 2.64 µM
Cmax ([2]; human, plasma, iv, Cmax, Day 8 (with 80 mg/m^2 paclitaxel), DL4, onalespib 260 mg/m^2 IV, geometric mean ± SD): 5.53 ± 4.5 µM
half-life ([2]; human, plasma, iv, t1/2, Day 8 (with 80 mg/m^2 paclitaxel), DL1, onalespib 120 mg/m^2 IV, median (range)): 10.5 h
half-life ([2]; human, plasma, iv, t1/2, Day 8 (with 80 mg/m^2 paclitaxel), DL2, onalespib 150 mg/m^2 IV, median (range)): 8.55 h
half-life ([2]; human, plasma, iv, t1/2, Day 8 (with 80 mg/m^2 paclitaxel), DL3, onalespib 200 mg/m^2 IV, median (range)): 9.62 h
half-life ([2]; human, plasma, iv, t1/2, Day 8 (with 80 mg/m^2 paclitaxel), DL4, onalespib 260 mg/m^2 IV, median (range)): 9.11 h
maximum tolerated dose [7]: 260 mg/m^2
Kd (HSP90): 0.71 nM
